Measured values as given in paper PMC7409368 (Free radical biology & medicine, 2018).

Target: T1, Drosophila MSRA (Drosophila melanogaster, UniProt P08761, C232S/C246S)
T1 sequence (P08761 2-246 C232S/C246S): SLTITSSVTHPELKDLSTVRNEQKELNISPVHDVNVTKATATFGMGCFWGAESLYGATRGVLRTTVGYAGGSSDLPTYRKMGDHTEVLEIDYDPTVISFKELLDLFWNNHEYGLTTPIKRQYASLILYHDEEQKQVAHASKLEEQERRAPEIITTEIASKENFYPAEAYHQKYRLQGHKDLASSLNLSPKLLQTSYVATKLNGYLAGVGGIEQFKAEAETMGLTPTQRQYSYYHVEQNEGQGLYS
Assay: intact protein mass spectrometry after incubation with MetO
Format: biochemical
Conditions: no dithiothreitol; oxidation of active site cysteine

C[S+]([O-])CC[C@H](N)C(=O)O (stereo partly drawn) [MetO, L-Methionine Sulfoxide]
intact protein mass spectrometry after incubation with MetO: when the C232S/C246S mutant was incubated with MetO, we observed that the mass
